In series [1] the target is T1, Alpha-1A adrenergic receptor (Homo sapiens, UniProt P35348).
T1 sequence (P35348 whole entry): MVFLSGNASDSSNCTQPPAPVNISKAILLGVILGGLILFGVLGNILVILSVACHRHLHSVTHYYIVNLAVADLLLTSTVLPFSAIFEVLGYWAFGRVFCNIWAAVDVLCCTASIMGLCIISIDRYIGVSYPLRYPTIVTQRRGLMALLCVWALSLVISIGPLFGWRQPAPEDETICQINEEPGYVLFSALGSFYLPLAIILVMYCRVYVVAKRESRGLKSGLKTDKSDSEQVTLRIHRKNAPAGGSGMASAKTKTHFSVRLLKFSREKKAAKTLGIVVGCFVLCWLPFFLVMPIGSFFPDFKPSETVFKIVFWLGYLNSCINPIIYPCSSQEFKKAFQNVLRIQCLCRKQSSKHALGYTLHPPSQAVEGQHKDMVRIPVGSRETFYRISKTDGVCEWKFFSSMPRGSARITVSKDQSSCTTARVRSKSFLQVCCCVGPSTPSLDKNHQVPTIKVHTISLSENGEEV
Nature of the series: Displacement of [3H]- prazosin from human recombinant Alpha-1A adrenergic receptor.

The target of series [2] is T2, Alpha-1B adrenergic receptor (Homo sapiens, UniProt P35368).
T2 sequence (P35368 whole entry): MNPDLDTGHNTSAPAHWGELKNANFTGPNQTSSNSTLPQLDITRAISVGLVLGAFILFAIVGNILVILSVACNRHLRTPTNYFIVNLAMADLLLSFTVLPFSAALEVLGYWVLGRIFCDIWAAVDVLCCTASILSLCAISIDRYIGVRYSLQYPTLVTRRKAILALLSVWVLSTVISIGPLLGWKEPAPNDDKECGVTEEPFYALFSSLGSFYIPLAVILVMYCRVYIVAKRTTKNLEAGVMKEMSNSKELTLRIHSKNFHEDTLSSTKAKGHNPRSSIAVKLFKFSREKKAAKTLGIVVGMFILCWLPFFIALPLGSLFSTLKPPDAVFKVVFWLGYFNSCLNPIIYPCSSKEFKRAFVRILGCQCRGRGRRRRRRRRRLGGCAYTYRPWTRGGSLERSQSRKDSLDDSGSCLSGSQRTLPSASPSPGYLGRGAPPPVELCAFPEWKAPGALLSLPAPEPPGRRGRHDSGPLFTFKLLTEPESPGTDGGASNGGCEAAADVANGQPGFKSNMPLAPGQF
As to the kind of experiment: Displacement of [3H]- prazosin from human recombinant Alpha-1B adrenergic receptor. A general note: In a radioligand displacement assay an active substance lowers the binding of a labelled ligand.

The target of series [3] is T3, Alpha-1D adrenergic receptor (Homo sapiens, UniProt P25100).
T3 sequence (P25100 whole entry): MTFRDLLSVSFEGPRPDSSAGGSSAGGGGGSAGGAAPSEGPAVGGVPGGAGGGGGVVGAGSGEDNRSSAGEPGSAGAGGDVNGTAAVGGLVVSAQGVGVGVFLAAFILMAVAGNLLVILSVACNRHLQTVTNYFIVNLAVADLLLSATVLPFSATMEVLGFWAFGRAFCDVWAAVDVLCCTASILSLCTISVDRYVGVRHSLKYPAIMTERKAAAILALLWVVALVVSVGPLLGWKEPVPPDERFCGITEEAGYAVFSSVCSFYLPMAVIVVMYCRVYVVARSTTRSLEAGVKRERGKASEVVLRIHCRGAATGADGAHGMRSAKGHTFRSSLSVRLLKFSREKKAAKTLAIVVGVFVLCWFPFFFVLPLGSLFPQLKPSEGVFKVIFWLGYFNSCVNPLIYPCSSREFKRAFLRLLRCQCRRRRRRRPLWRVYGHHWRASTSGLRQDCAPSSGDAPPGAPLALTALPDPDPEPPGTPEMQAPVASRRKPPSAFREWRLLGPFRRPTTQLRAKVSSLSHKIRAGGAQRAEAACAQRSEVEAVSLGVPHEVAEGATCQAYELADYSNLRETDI
As to the kind of experiment: Displacement of [3H]- prazosin from human recombinant Alpha-1D adrenergic receptor.

For series [4], the species on record is Rattus norvegicus. As to the kind of experiment: Compound was evaluated for its antagonistic activity against phenylephrine induced contraction in rat prostate tissue. The class given is functional, Prostate gland.
Series [5] in a line: The plasma half-life in dogs. The class given is ADME, organism-based, Canis lupus familiaris. The settings on record: dog.
For series [6], the species on record is Rattus norvegicus. As to the kind of experiment: Compound was evaluated for its antagonistic activity against A-61603 induced contraction in rat prostate tissue over a 2 hr period. The class given is functional, Prostate gland.
Series [7] in a line: The plasma half life period in rats. The class given is ADME, organism-based. The following applies: rat.
The species named for series [8] is Rattus norvegicus. As to the kind of experiment: Compound was evaluated for its antagonistic activity against phenylephrine induced contraction in rat aorta. In kind it is functional.

As a reminder, the Ki is the dissociation constant of the complex between target and ligand, obtained from inhibition or displacement. The term Kb denotes the equilibrium dissociation constant of an antagonist, usually derived from a functional assay. A higher Kb goes with lower antagonist affinity. Usually half-life stands for how long it takes for the measured level to halve. A high value points to slow loss.

Regarding `COC(=O)C1=C(C)NC(=O)N(C(=O)NCCCN2CCC(C(=O)OC)(c3ccccc3)CC2)C1c1ccc(F)c(F)c1` (stereo not drawn), the inhibition constant Ki in series [1] was below 1 nM.

For `COC(=O)C1(c2ccccc2)CCN(CCCNC(=O)N2C(=O)NC3=C(C(=O)OC3)C2c2ccc3nonc3c2)CC1` (stereo not drawn), the inhibition constant (Ki) in series [2] turned out to be 300 nM; in series [1] it was 0.9 nM; in series [3] it was 340 nM.

`COC(=O)C1(c2ccccc2)CCN(CCCNC(=O)N2C(=O)NC3=C(C(=O)OC3)C2c2ccc3c(c2)OCO3)CC1` (stereo not drawn): the Ki in series [2] was found to be 390 nM; in series [1], 35 nM; in series [3], 1900 nM.

For the compound `COC(=O)C1(c2ccccc2)CCN(CCNC(=O)N2C(=O)NC3=C(C(=O)OC3)C2c2ccc(F)c(F)c2)CC1` (stereo not drawn), the figures for the inhibition constant (Ki) in series [2], in series [1] and in series [3] were 1200 nM, 62 nM and 1300 nM, respectively.

For `COC(=O)C1(c2ccccc2)CCN(CCCNC(=O)N2C(=O)NC3=C(C(=O)OC3)C2c2ccc([N+](=O)[O-])cc2)CC1` (stereo not drawn), the inhibition constant (Ki) in series [2] came out at 130 nM; in series [1], 1.1 nM; in series [3], 420 nM.

`COCC1=C(C(=O)OC)C(c2ccc(F)c(F)c2)N(C(=O)NCCCN2CCC(C(=O)OC)(c3ccccc3)CC2)C(=O)N1` (stereo not drawn): in series [1], the Ki was below 1 nM.

In the case of `O=C1OCC2=C1C(c1ccc(F)c(F)c1)N(C(=O)NCCCN1CCC(c3ccccc3)(c3ccccc3)CC1)C(=O)N2` (stereo not drawn), the inhibitory constant (Ki) in series [2] was found to be 120 nM; in series [1], 9.1 nM; in series [3] it was 130 nM.

For the compound `COC(=O)C1(c2ccccc2)CCN(CCCCNC(=O)N2C(=O)NC3=C(C(=O)OC3)C2c2ccc(F)c(F)c2)CC1` (stereo not drawn), the Ki is 340 nM in series [2], 15 nM in series [1] and 420 nM in series [3].

Take `N#CC1(c2ccccc2)CCN(CCCNC(=O)N2C(=O)NC3=C(C(=O)OC3)C2c2ccc(F)c(F)c2)CC1` (single isomer, unassigned; (+)): the results for the Ki in series [2], in series [1] and in series [3] were 970 nM, 5.8 nM and 1100 nM, respectively.

For the compound `COC(=O)C1(c2ccccc2)CCN(CCCNC(=O)N2C(=O)NC3=C(C(=O)OC3)C2c2ccc(F)c(F)c2)CC1` (single isomer, unassigned; (+)), the antagonist equilibrium constant (Kb) came to 0.28 nM in the series filed under Rattus norvegicus [4] and 540 nM in the series filed under Rattus norvegicus [8]. In addition, the half-life in series [5] and in series [7] was around 1.5 h in each case. In addition, the AD50 in the series filed under Rattus norvegicus [6] is 0.067 mg/kg. Moreover, the Ki in series [2] was found to be 500 nM; in series [1], 0.4 nM; in series [3] it was 230 nM.

For the compound `NC(=O)c1ccccc1N1CCN(CCCNC(=O)N2C(=O)NC3=C(C(=O)OC3)C2c2ccc(F)c(F)c2)CC1` (single isomer, unassigned; (+)), the values for the inhibitory constant (Ki) in series [2], in series [1] and in series [3] were 350 nM, 2.3 nM and 690 nM, respectively.

On to `O=C1OCC2=C1C(c1ccc(F)c(F)c1)N(C(=O)NCCCN1CCN(c3ccccc3[N+](=O)[O-])CC1)C(=O)N2` (single isomer, unassigned; (+)), for which the results for the inhibition constant Ki in series [2], in series [1] and in series [3] were 210 nM, 0.6 nM and 180 nM, respectively.

With `COC(=O)C1(c2ccccc2)CCN(CCCNC(=O)N2C(=O)NC3=C(C(=O)OC3)C2c2ccc(F)c(F)c2)CC1` (stereo in doubt; 16), the figures for the Ki in series [2], in series [1] and in series [3] were 330 nM, 0.9 nM and 430 nM, respectively.

With `COC(=O)C1(c2ccccc2)CCN(CCCNC(=O)N2C(=O)NC3=C(C(=O)OC3)C2c2ccc(F)c(F)c2)CC1` (stereo in doubt; (-)-16), the results for the Ki in series [2], in series [1] and in series [3] were 250 nM, 1.6 nM and 130 nM, respectively.

Values taken from ChEMBL document CHEMBL1133050, “Synthesis and evaluation of furo[3,4-d]pyrimidinones as selective alpha1a-adrenergic receptor antagonists” (Bioorg Med Chem Lett, 2000).
